According to US20180318291A1, “USE OF AMINOTHIAZOLE MYD88 SPECIFIC INHIBITOR TJM2010-5” (WUHAN INNAMUNE PHARMACEUTICAL INC. LTD., priority 2015, published 2018):

System: lymphocyte subpopulation in receptor spleen
Experiment: lymphocyte subpopulation in receptor spleen by flow cytometry
Format: in vivo, mice
Conditions: FIG. 5
From the text: In vitro experiment: conduct analysis on lymphocyte subpopulation in receptor spleen receiving stimulation of antigen (homogenic, allogeneic), and flow cytometer detection on CD4+CD25+Foxp3+T cell ratio in receptor receiving TJM2010-5 treatment.
1. Take the receptor spleen of different groups (homogenic, allogenic antigenic stimulation), and grind them to separate lymphocyte;
2. Add the IFN-γ labeled by flow antibody APC and IL-17 labeled by APC, CD25 labeled by APC and Foxp3 labeled by PE.
3. Analyze the lymphocyte subpopulation in receptor spleen of various groups, and the CD4+CD25+Foxp3+T cell ratio in receptor receiving TJM2010-5 treatment with flow cytometry.

## O=C(CCN1CCN(Cc2ccccc2)CC1)Nc1nc(-c2ccccc2)cs1 [TJM2010-5, 3-(4-benzylpiperazin-1-yl)-N-(4-phenylthiazol-2-yl) propanamide]
Receptor spleen lymphocytes
  IFN-γ vs CMC control group: significantly lower than that of CMC control group
  IL-17 vs CMC control group: significantly lower than that of CMC control group
Receptor spleen
  CD4+CD25+Foxp3+T cell ratio in receptor: up-regulated significantly
